According to PubChem BioAssay AID1963845 (Molecular Pharmacology Branch, DTP, NCI, 2024):

Test system: 429239-143-T-J1-PDC complex spheroid viability
Test: Anticancer human tumor 429239-143-T-J1-PDC patient-derived small cell lung carcinoma cell line growth inhibition [POLQ]
Conditions: for IC50: curve of first compound; for viability, T/C: stronger effect = lower value
Procedure, shortened: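 PDC + HUVEC + MSC complex spheroids; POLQ inhibitors ± partner drugs; top conc. at/near clinical Cmax, else 10 microM (SN-38 1 microM), half-log dilutions; 37 degrees C, 5% CO2.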

[1] = second compound 0.0316 µM, first compound 0.0316 µM
[2] = second compound 0.0316 µM, first compound 0.1 µM
[3] = second compound 0.0316 µM, first compound 0.316 µM
[4] = second compound 0.0316 µM, first compound 1 µM
[5] = second compound 0.0316 µM, first compound 3.16 µM
[6] = second compound 0.0316 µM, first compound 10 µM
[7] = second compound 0.1 µM, first compound 0.0316 µM
[8] = second compound 0.1 µM, first compound 0.1 µM
[9] = second compound 0.1 µM, first compound 0.316 µM
[10] = second compound 0.1 µM, first compound 1 µM
[11] = second compound 0.1 µM, first compound 3.16 µM
[12] = second compound 0.1 µM, first compound 10 µM
[13] = second compound 0.316 µM, first compound 0.0316 µM
[14] = second compound 0.316 µM, first compound 0.1 µM
[15] = second compound 0.316 µM, first compound 0.316 µM
[16] = second compound 0.316 µM, first compound 1 µM
[17] = second compound 0.316 µM, first compound 3.16 µM
[18] = second compound 0.316 µM, first compound 10 µM
[19] = second compound 1 µM, first compound 0.0316 µM
[20] = second compound 1 µM, first compound 0.1 µM
[21] = second compound 1 µM, first compound 0.316 µM
[22] = second compound 1 µM, first compound 1 µM
[23] = second compound 1 µM, first compound 3.16 µM
[24] = second compound 1 µM, first compound 10 µM
[25] = second compound 3.16 µM, first compound 0.0316 µM
[26] = second compound 3.16 µM, first compound 0.1 µM
[27] = second compound 3.16 µM, first compound 0.316 µM
[28] = second compound 3.16 µM, first compound 1 µM
[29] = second compound 3.16 µM, first compound 3.16 µM
[30] = second compound 3.16 µM, first compound 10 µM
[31] = second compound 10 µM, first compound 0.0316 µM
[32] = second compound 10 µM, first compound 0.1 µM
[33] = second compound 10 µM, first compound 0.316 µM
[34] = second compound 10 µM, first compound 1 µM
[35] = second compound 10 µM, first compound 3.16 µM
[36] = second compound 10 µM, first compound 10 µM
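Note: luminescence signal used as surrogate measure of viable cells; spheroids exposed to compounds for seven days before readout.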
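Throughout, for viability, T/C: 100% = DMSO vehicle control viability as luminescence relative to vehicle.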

`O=C(Nc1ccc(O)c(NS(=O)(=O)c2ccc(F)cc2)c1)c1ccc(-c2ccccc2)cc1` + Nc1ccc(C#CCN(C(=O)Cc2ncc(C(F)(F)F)cc2C(F)(F)F)c2ccc(F)cc2)nn1 gave an IC50 (second compound 0.0316 µM) of over 10000 nM, an IC50 (second compound 0.1 µM) of over 10000 nM and an IC50 (second compound 0.316 µM) of over 10000 nM. The IC50 (second compound 1 µM) was over 10000 nM, the IC50 (second compound 3.16 µM) was over 10000 nM and the IC50 (second compound 10 µM) was over 10000 nM. The viability, T/C [1] was 102%, the viability, T/C [2] was 106% and the viability, T/C [3] was 89.5%. For the same compound, the viability, T/C [4] was 105%, the viability, T/C [5] was 106% and the viability, T/C [6] was 110%. The viability, T/C [7] was 105%, the viability, T/C [8] was 109% and the viability, T/C [9] was 112%. It also gave a viability, T/C [10] of 106%, a viability, T/C [11] of 109% and a viability, T/C [12] of 99%. For the same compound, the viability, T/C [13] was 111%, the viability, T/C [14] was 103% and the viability, T/C [15] was 104%. For the same compound, the viability, T/C [16] was 108%, the viability, T/C [17] was 116% and the viability, T/C [18] was 98.2%. The viability, T/C [19] was 115%, the viability, T/C [20] was 109% and the viability, T/C [21] was 95.8%. For the same compound, the viability, T/C [22] was 106%, the viability, T/C [23] was 113% and the viability, T/C [24] was 109%. For the same compound, the viability, T/C [25] was 107%, the viability, T/C [26] was 103% and the viability, T/C [27] was 103%. For the same compound, the viability, T/C [28] was 101%, the viability, T/C [29] was 97.1% and the viability, T/C [30] was 106%. For the same compound, the viability, T/C [31] was 102%, the viability, T/C [32] was 96.6% and the viability, T/C [33] was 103%. The viability, T/C [34] was 93.7%, the viability, T/C [35] was 95.1% and the viability, T/C [36] was 96.3%.
`CC1COCCN1c1cc(C2(O)CC3CCC(C2)O3)c2cnn(-c3ccn[nH]3)c2n1` (stereo not drawn) + Nc1ccc(C#CCN(C(=O)Cc2ncc(C(F)(F)F)cc2C(F)(F)F)c2ccc(F)cc2)nn1 showed an IC50 (second compound 0.0316 µM) of 273 nM, an IC50 (second compound 0.1 µM) of 251 nM and an IC50 (second compound 0.316 µM) of 269 nM. For the same compound, the IC50 (second compound 1 µM) was 263 nM, the IC50 (second compound 3.16 µM) was 232 nM and the IC50 (second compound 10 µM) was 187 nM. The viability, T/C [1] was 84.1%, the viability, T/C [2] was 72% and the viability, T/C [3] was 48.2%. For the same compound, the viability, T/C [4] was 7.65%, the viability, T/C [5] was 3.72% and the viability, T/C [6] was 2.1%. For the same compound, the viability, T/C [7] was 83.8%, the viability, T/C [8] was 70.5% and the viability, T/C [9] was 46.3%. The viability, T/C [10] was 7.55%, the viability, T/C [11] was 3.33% and the viability, T/C [12] was 2.36%. The viability, T/C [13] was 83.9%, the viability, T/C [14] was 71.3% and the viability, T/C [15] was 47.9%. It also gave a viability, T/C [16] of 7.06%, a viability, T/C [17] of 3.37% and a viability, T/C [18] of 2.33%. For the same compound, the viability, T/C [19] was 78.9%, the viability, T/C [20] was 69.5% and the viability, T/C [21] was 46.8%. It also gave a viability, T/C [22] of 6.97%, a viability, T/C [23] of 3.6% and a viability, T/C [24] of 2.11%. It also gave a viability, T/C [25] of 81.1%, a viability, T/C [26] of 70.4% and a viability, T/C [27] of 43.1%. For the same compound, the viability, T/C [28] was 7.77%, the viability, T/C [29] was 3.26% and the viability, T/C [30] was 2.52%. The viability, T/C [31] was 83.4%, the viability, T/C [32] was 66.9% and the viability, T/C [33] was 36.4%. The viability, T/C [34] was 6.28%, the viability, T/C [35] was 3.88% and the viability, T/C [36] was 2.51%.
Compound `CC(=O)O[C@H]1C(=O)[C@@]2(C)[C@H]([C@H](OC(=O)c3ccccc3)[C@]3(O)C[C@H](OC(=O)[C@H](O)[C@@H](NC(=O)c4ccccc4)c4ccccc4)C(C)=C1C3(C)C)[C@]1(OC(C)=O)CO[C@@H]1C[C@@H]2O` + Nc1ccc(C#CCN(C(=O)Cc2ncc(C(F)(F)F)cc2C(F)(F)F)c2ccc(F)cc2)nn1 has an IC50 (second compound 0.0316 µM) of 14.4 nM, an IC50 (second compound 0.1 µM) of 14.4 nM and an IC50 (second compound 0.316 µM) of 14 nM. The IC50 (second compound 1 µM) was 15.3 nM, the IC50 (second compound 3.16 µM) was 14.2 nM and the IC50 (second compound 10 µM) was 13.2 nM. The viability, T/C (second compound 0.0316 µM, first compound 0.00949 µM) was 65.6%, the viability, T/C (second compound 0.0316 µM, first compound 0.03 µM) was 20.2% and the viability, T/C (second compound 0.0316 µM, first compound 0.0949 µM) was 16%. The viability, T/C (second compound 0.0316 µM, first compound 0.3 µM) was 16.2%, the viability, T/C (second compound 0.0316 µM, first compound 0.949 µM) was 26.6% and the viability, T/C (second compound 0.0316 µM, first compound 3 µM) was 32.6%. The viability, T/C (second compound 0.1 µM, first compound 0.00949 µM) was 67%, the viability, T/C (second compound 0.1 µM, first compound 0.03 µM) was 18.6% and the viability, T/C (second compound 0.1 µM, first compound 0.0949 µM) was 15.9%. For the same compound, the viability, T/C (second compound 0.1 µM, first compound 0.3 µM) was 17.1%, the viability, T/C (second compound 0.1 µM, first compound 0.949 µM) was 22.2% and the viability, T/C (second compound 0.1 µM, first compound 3 µM) was 24.6%. For the same compound, the viability, T/C (second compound 0.316 µM, first compound 0.00949 µM) was 64.2%, the viability, T/C (second compound 0.316 µM, first compound 0.03 µM) was 22.6% and the viability, T/C (second compound 0.316 µM, first compound 0.0949 µM) was 16%. It also gave a viability, T/C (second compound 0.316 µM, first compound 0.3 µM) of 17.1%, a viability, T/C (second compound 0.316 µM, first compound 0.949 µM) of 19.8% and a viability, T/C (second compound 0.316 µM, first compound 3 µM) of 26.2%. The viability, T/C (second compound 1 µM, first compound 0.00949 µM) was 71%, the viability, T/C (second compound 1 µM, first compound 0.03 µM) was 18.2% and the viability, T/C (second compound 1 µM, first compound 0.0949 µM) was 14.8%. For the same compound, the viability, T/C (second compound 1 µM, first compound 0.3 µM) was 17.5%, the viability, T/C (second compound 1 µM, first compound 0.949 µM) was 25.2% and the viability, T/C (second compound 1 µM, first compound 3 µM) was 24%. It also gave a viability, T/C (second compound 3.16 µM, first compound 0.00949 µM) of 67%, a viability, T/C (second compound 3.16 µM, first compound 0.03 µM) of 16.2% and a viability, T/C (second compound 3.16 µM, first compound 0.0949 µM) of 15.4%. The viability, T/C (second compound 3.16 µM, first compound 0.3 µM) was 15.9%, the viability, T/C (second compound 3.16 µM, first compound 0.949 µM) was 18.5% and the viability, T/C (second compound 3.16 µM, first compound 3 µM) was 26.7%. The viability, T/C (second compound 10 µM, first compound 0.00949 µM) was 64.3%, the viability, T/C (second compound 10 µM, first compound 0.03 µM) was 14.5% and the viability, T/C (second compound 10 µM, first compound 0.0949 µM) was 13.4%. It also gave a viability, T/C (second compound 10 µM, first compound 0.3 µM) of 14.3%, a viability, T/C (second compound 10 µM, first compound 0.949 µM) of 15.9% and a viability, T/C (second compound 10 µM, first compound 3 µM) of 18.5%.
Work on `COc1ccc([C@@H](O)c2cc(-c3ncnc4cc(N5CCOCC5)ccc34)c(F)cc2Cl)nn1` + Cc1cccc(N(C)C(=O)C2C(O)CCN2c2nc(C)cc(C(F)(F)F)c2C#N)c1 yielded an IC50 (second compound 0.0316 µM) of 3250 nM, an IC50 (second compound 0.1 µM) of 2790 nM and an IC50 (second compound 0.316 µM) of 2480 nM. For the same compound, the IC50 (second compound 1 µM) was 3320 nM, the IC50 (second compound 3.16 µM) was 2880 nM and the IC50 (second compound 10 µM) was 2490 nM. For the same compound, the viability, T/C [1] was 103%, the viability, T/C [2] was 95.7% and the viability, T/C [3] was 94.4%. It also gave a viability, T/C [4] of 70.4%, a viability, T/C [5] of 53.5% and a viability, T/C [6] of 10.8%. For the same compound, the viability, T/C [7] was 101%, the viability, T/C [8] was 107% and the viability, T/C [9] was 106%. It also gave a viability, T/C [10] of 80.7%, a viability, T/C [11] of 47.3% and a viability, T/C [12] of 9.36%. The viability, T/C [13] was 105%, the viability, T/C [14] was 94.5% and the viability, T/C [15] was 102%. The viability, T/C [16] was 90.1%, the viability, T/C [17] was 39.2% and the viability, T/C [18] was 14.3%. The viability, T/C [19] was 105%, the viability, T/C [20] was 95.9% and the viability, T/C [21] was 98.7%. For the same compound, the viability, T/C [22] was 82.3%, the viability, T/C [23] was 51.9% and the viability, T/C [24] was 9.82%. The viability, T/C [25] was 99.5%, the viability, T/C [26] was 98.8% and the viability, T/C [27] was 97.2%. The viability, T/C [28] was 79.5%, the viability, T/C [29] was 47.7% and the viability, T/C [30] was 8.69%. For the same compound, the viability, T/C [31] was 122%, the viability, T/C [32] was 86.7% and the viability, T/C [33] was 89.5%. For the same compound, the viability, T/C [34] was 64.3%, the viability, T/C [35] was 57.1% and the viability, T/C [36] was 8.38%.
